# Reference: patent US20230391727A1, “ANALOGUES OF PENTAMIDINE AND METHODS FOR TREATING INFECTIONS” (Auransa Inc., priority 2020, published 2023)
# Tests used:
# [1] = test system: S. aureus ATCC 27660; assay: MIC assay against gram positive S. aureus; assay type: cell-based; details: Staphylococcus aureus, ATCC27660
# Experimental: (§1) Then the compound stocks were serially 2-fold diluted in a v-bottom 96-well plate to make 100-fold working solutions. One day before the test, −80° C. glycerol stock of S. aureus strains were streaked on cation-adjusted Mueller-Hinton agar (CAMHA) plates. On the day of test, fresh bacterial colonies were suspended into sterile saline to an OD600 nm of ˜0.1 (equivalent to 0.5 McFarland). The bacterial suspension was firstly 20-fold followed by 50-fold diluted in cation-adjusted Mueller-Hinton broth (CAMHB) plates to 1×10^6 CFU/PO. 198 ul of the inoculum was added into the round-bottom 96-well plates prefilled with 2 ul of 100-fold compound working solutions. After incubating at 35 +/−2° C. in ambient atmosphere for 18-24 h, MIC was recorded as the lowest concentration under which no visible bacterial growth was observed.
# [2] = test system: S. aureus ATCC 43300; assay: MIC assay against gram positive S. aureus; assay type: cell-based; details: Staphylococcus aureus, ATCC43300
# Experimental: as §1
# [3] = test system: S. aureus VRS-2; assay: S. aureus VRS-2 peritonitis infection model; assay type: in vivo, female ICR mice
# Experimental: The efficacy of compound 3 was evaluated in the S. aureus VRS-2 peritonitis infection model. The test article, compound 3 at 0.1, 0.3 and 1 mg/kg, was intraperitoneally (IP) administered twice at 2 and 16 h after infection; as well as once at 2 mg/kg at 2 h post-infection. The control reference agent, linezolid at 50 mg/kg, was orally (PO) administered once at 1 h post-infection. […] All animals in the vehicle group succumbed to infection between Day 1 to Day 2, resulting in 100% mortality, and a mean 15 h survival time. […] In the compound 3 at 1 mg/kg IP BID dose group, one out of eight animals survived till Day 7 of the study period, resulting in 13% survival rate, and a mean 33 h survival time.
# For efficacy testing, the 0.4 mg/mL compound 3 solution was prepared by dissolving 1.21 mg of compound 3, corresponding to active ingredient of 1.02 mg with a correction factor of 1.19, in 2.55 mL of WFI. The 0.4 mg/mL compound 3 working solution was further diluted with WFI to generate three lower dosing solutions of 0.2, 0.06 and 0.02 mg/mL. All dosing solutions were soluble and colorless.
# PDS supplied vancomycin and linezolid as reference controls for both MIC and in vivo studies. […] The 3.2 mg/mL linezolid 50× stock solution was prepared by dissolving 1.0 mg of linezolid in 0.313 mL of DMSO. Both solutions were colorless and soluble. For efficacy testing, one tablet of linezolid, at 600 mg, was dissolved in 12 mL of 1% Tween 80 in saline (0.9% NaCl) to generate a 50 mg/mL of stock solution. The 50 mg/mL linezolid stock solution was further diluted with 1% Tween 80 in 0.9% NaCl to generate the dosing solution of 5 mg/mL. Both solutions were insoluble with white color.
# The S. aureus strain VRS-2 peritonitis infection model was performed with immunocompetent female ICR mice, weighing 22±2 g. All animals were specific pathogen free. The PDS standard protocol for preparing S. aureus cultures for mouse infection studies was followed. A 0.2 mL aliquot of a single-use glycerol stock (at −80° C.) was used to seed […] heart infusion (BHI) and then incubated at 35-37° C. with shaking (250 rpm) for 8 h. Bacterial cells in the 20 mL was pelleted by centrifugation (3,500×g) for 15 minutes, and then re-suspended in 10 mL cold phosphate buffer saline (PBS). The optical density, OD620 nm, was measured and used to guide dilution. The PBS suspensions were stored on ice for no more than 1 h prior to animal inoculation. The dilutions were performed by 1:1 dilution of BHI broth containing hog gastric mucin to obtain the target inoculum density, 1×10^8 CFU/mouse, per 0.5 mL with 5% mucin (final concentration). The actual colony count was determined by plating dilutions to nutrient agar (NA) plates followed by 20-24 h incubation at 35-37° C.
# On Day 0, animals were infected with bacterial suspension with 5% mucin by intraperitoneal injection. The actual inoculum was 1.93×10^8 CFU/mouse with a target inoculum of 1×10^8 CFU/mouse in the peritonitis infection model. Test article, compound 3, was formulated in WFI and intraperitoneally (IP) administered with the dose schedule and concentrations indicated in the study design. Doses were administered once at 2 h post-infection or twice (BID) at 2 and 16 h post-infection. The animals were monitored for survival up to 7 days, twice daily (AM 9:00/PM 17:00). […]
# Animals were monitored for mortality twice daily (AM 9:00/PM 17:00) for 7 days after infection. […]
structure (smiles),measurement,setting,value
"N=C(N)c1ccc(CC[C@H]2CCC[C@@H](CCc3ccc(C(=N)N)cc3)C2)cc1 [Compound 3, 4,4′-(2,2′-((1R,3S)-cyclohexane-1,3-diyl)bis(ethane-2,1-diyl))dibenzimidamide]",MIC,[1],0.5 µg/mL
same,MIC,[2],0.5 µg/mL
same,mean survival time,[3]; 1 mg/kg IP BID (2 and 16 h after infection),33 h
same,survival rate,"[3]; 1 mg/kg IP BID (2 and 16 h after infection), Day 7",13%
same,mortality,"[3]; 0.1 and 0.3 mg/kg IP BID, and single dose of 2 mg/kg",100%
